Measured values from US20190292179A1 (BRISTOL-MYERS SQUIBB COMPANY, priority 2016, published 2019).

Assays:
HIS-TGFβR1 T204D = target: T1, HIS-TGFβR1 T204D (Homo sapiens, UniProt P36897, T204D); test: HTRF probe-displacement assay with HIS-TGFβR1 T204D; type: binding; conditions: 1 nM HIS-TGFβR1 T204D, labeled probe at Kd, 1 hour at room temperature
T1 sequence (P36897 34-503 T204D): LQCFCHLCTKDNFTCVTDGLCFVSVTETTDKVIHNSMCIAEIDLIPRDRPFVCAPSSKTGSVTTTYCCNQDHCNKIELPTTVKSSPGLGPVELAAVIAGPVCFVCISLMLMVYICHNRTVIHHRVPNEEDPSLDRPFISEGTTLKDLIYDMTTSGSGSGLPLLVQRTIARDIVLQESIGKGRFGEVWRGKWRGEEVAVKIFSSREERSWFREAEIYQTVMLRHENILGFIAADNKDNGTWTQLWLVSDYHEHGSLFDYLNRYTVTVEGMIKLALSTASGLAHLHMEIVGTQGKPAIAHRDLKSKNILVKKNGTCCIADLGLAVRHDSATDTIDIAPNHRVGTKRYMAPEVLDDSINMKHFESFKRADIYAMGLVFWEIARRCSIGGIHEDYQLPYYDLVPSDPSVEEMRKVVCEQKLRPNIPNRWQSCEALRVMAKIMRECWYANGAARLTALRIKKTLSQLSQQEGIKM
How it was run: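 Binding read as HTRF probe displacement with 1 nM HIS-tagged kinase, 0.2 nM anti-HIS antibody, labelled probe at Kd and 0.5% DMSO, 1 h at room temperature (Ex 340, Em 520/495 nm). Eleven-point dose response normalised to no-enzyme and vehicle controls; IC50 from non-linear regression.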

HIS-TGFβR2 WT = HIS-TGFβR2 WT (Homo sapiens, UniProt P37173); test: HTRF probe-displacement assay with HIS-TGFβR2 WT; type: binding; conditions: 1 nM HIS-TGFβR2 WT, labeled probe at Kd, 1 hour at room temperature
HIS-TGFβR2 WT, sequence (P37173 23-567): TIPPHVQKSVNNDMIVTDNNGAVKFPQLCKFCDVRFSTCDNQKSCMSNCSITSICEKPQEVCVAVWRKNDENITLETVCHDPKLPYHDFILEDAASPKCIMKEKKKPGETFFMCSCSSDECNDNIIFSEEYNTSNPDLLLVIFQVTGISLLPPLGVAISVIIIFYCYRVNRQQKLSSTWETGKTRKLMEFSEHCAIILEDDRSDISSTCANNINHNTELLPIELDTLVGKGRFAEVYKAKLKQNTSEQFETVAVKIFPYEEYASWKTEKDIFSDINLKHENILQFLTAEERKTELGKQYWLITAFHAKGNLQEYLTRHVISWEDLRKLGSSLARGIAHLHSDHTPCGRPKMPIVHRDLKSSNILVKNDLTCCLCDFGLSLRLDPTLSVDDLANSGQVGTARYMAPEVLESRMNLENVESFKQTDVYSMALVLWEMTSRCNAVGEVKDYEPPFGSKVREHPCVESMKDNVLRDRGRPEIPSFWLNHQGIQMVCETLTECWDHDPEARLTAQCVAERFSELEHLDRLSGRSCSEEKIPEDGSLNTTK
Description: The reaction is incubated for 1 hour at room temperature and the HTRF signal was measured on an Envision plate reader (Ex: 340 nm; Em: 520 nm/495 nm). Inhibition data were calculated by comparison to no enzyme control reactions for 100% inhibition and vehicle-only reactions for 0% inhibition. The final concentration of reagents in the assay are 1 nM HIS-TGFβR1 T204D or HIS-TGFβR2 WT, 0.2 nM anti-HIS detection antibody, labeled small molecule probe (at Kd) and 0.5% DMSO. Dose response curves were generated to determine the concentration required inhibiting 50% of kinase activity (IC50). Compounds were dissolved at 10 mM in dimethylsulfoxide (DMSO) and evaluated at eleven concentrations. IC50 values were derived by non-linear regression analysis.

Structure (SMILES)	IC50 (HIS-TGFβR1 T204D)	IC50 (HIS-TGFβR2 WT)
Fc1ccc(-c2n[nH]cc2-c2ccc3nccn3n2)cc1 [Example 55, 6-(3-(4-fluorophenyl)-1H-pyrazol-4-yl)imidazo[1,2-b]pyridazine]	0.006 µM	4.93 µM
Fc1ccc(-c2n[nH]cc2-c2ccc3ncc(F)n3c2)cc1 [Example 56, 3-fluoro-6-(3-(4-fluorophenyl)-1H-pyrazol-4-yl)imidazo[1,2-a]pyridine]	0.007 µM	0.533 µM
CCOC(=O)c1cnc2ccc(-c3c[nH]nc3-c3ccc(F)cc3)cn12 [Example 57, ethyl 6-(3-(4-fluorophenyl)-1H-pyrazol-4-yl)imidazo[1,2-a]pyridine-3-carboxylate]	0.003 µM	3.71 µM
CC(C)(O)c1cnc2ccc(-c3c[nH]nc3-c3ccc(F)cc3)cn12 [Example 59, 2-(6-(3-(4-fluorophenyl)-1H-pyrazol-4-yl)imidazo[1,2-a]pyridin-3-yl)propan-2-ol]	0.241 µM	5.34 µM
N#Cc1cnc2ccc(-c3cn(CC(F)F)nc3-c3ccc(F)c(Cl)c3)cn12 [Example 61, 6-(3-(3-chloro-4-fluorophenyl)-1-(2,2-difluoroethyl)-1H-pyrazol-4-yl)imidazo[1,2-a]pyridine-3-carbonitrile]	0.007 µM	2.28 µM
CC(C)c1[nH]nc(-c2ccc(F)cc2)c1-c1ccc2ncc(C#N)n2c1 [Example 67, 6-(3-(4-fluorophenyl)-5-isopropyl-1H-pyrazol-4-yl)imidazo[1,2-a]pyridine-3-carbonitrile]	0.004 µM	11.1 µM
CC(C)c1c(-c2ccc3ncc(C(N)=O)n3c2)c(-c2ccc(F)cc2)nn1C [Example 72]	0.002 µM	0.963 µM
N#Cc1cnc2ccc(-c3c(-c4ccc(F)cc4)n[nH]c3C3CC3)cn12 [Example 84, 6-(5-cyclopropyl-3-(4-fluorophenyl)-1H-pyrazol-4-yl)imidazo[1,2-a]pyridine-3-carbonitrile]	0.003 µM	2.68 µM
Fc1ccc(-c2n[nH]c(C3CC3)c2-c2ccc3nccn3c2)cc1 [Example 86, 6-(5-cyclopropyl-3-(4-fluorophenyl)-1H-pyrazol-4-yl)imidazo [1,2-a]pyridine]	0.004 µM	14.6 µM
Fc1ccc(-c2n[nH]c(C3CC3)c2-c2ccc3nccn3n2)cc1 [Example 87, 6-(5-cyclopropyl-3-(4-fluorophenyl)-1H-pyrazol-4-yl)imidazo [1,2-b]pyridazine]	0.002 µM	6.9 µM
NC(=O)c1cnc2ccc(-c3c(-c4ccc(F)cc4)nn4c3COCC4)cn12 [Example 111, 6-(2-(4-fluorophenyl)-6,7-dihydro-4H-pyrazolo[5,1-c][1,4]oxazin-3-yl)imidazo[1,2-a]pyridine-3-carboxamide]	0.002 µM	0.577 µM
CC(=O)Nc1cc(-c2c(-c3ccc(F)cc3)nn3c2COCC3)ccn1 [Example 112, N-(4-(2-(4-fluorophenyl)-6,7-dihydro-4H-pyrazolo[5,1-c][1,4]oxazin-3-yl)pyridin-2-yl)acetamide]	0.011 µM	0.105 µM
Cc1cccc(-c2nn(C)c(C(C)C)c2-c2ccc3ncc(C#N)n3c2)n1 [Example 116, 6-(5-isopropyl-1-methyl-3-(6-methylpyridin-2-yl)-1H-pyrazol-4-yl)imidazo[1,2-a]pyridine-3-carbonitrile]	0.001 µM	5.77 µM
Cc1cccc(-c2n[nH]c(C(C)C)c2-c2ccc3nccn3c2)n1 [Example 118, 6-(5-isopropyl-3-(6-methylpyridin-2-yl)-1H-pyrazol-4-yl)imidazo[1,2-a]pyridine]	0.001 µM	2.69 µM

The remaining compounds from weak to strong by IC50 (HIS-TGFβR1 T204D), led by results:

IC50 (HIS-TGFβR1 T204D)	IC50 (HIS-TGFβR2 WT)	Structure (SMILES)
0.001 µM	2.23 µM	CCOC(=O)c1cnc2ccc(-c3cn(C)nc3-c3cccc(C)n3)cn12 [Example 51, ethyl 6-(1-methyl-3-(6-methylpyridin-2-yl)-1H-pyrazol-4-yl)imidazo[1,2-a]pyridine-3-carboxylate]
0.001 µM	0.012 µM	Cc1cccc(-c2n[nH]c(C)c2-c2ccc3ncc(C(N)=O)n3c2)n1 [Example 64, 6-(5-methyl-3-(6-methylpyridin-2-yl)-1H-pyrazol-4-yl)imidazo[1,2-a]pyridine-3-carboxamide]
0.001 µM	0.194 µM	Cc1cccc(-c2nn(C)c(C)c2-c2ccc3ncc(C(N)=O)n3c2)n1 [Example 65, 6-(1,5-dimethyl-3-(6-methylpyridin-2-yl)-1H-pyrazol-4-yl)imidazo[1,2-a]pyridine-3-carboxamide]
0.001 µM	0.277 µM	Cc1[nH]nc(-c2cccc(F)n2)c1-c1ccc2ncc(C#N)n2c1 [Example 66, 6-(3-(6-fluoropyridin-2-yl)-5-methyl-1H-pyrazol-4-yl)imidazo [1,2-a]pyridine-3-carbonitrile]
0.001 µM	0.176 µM	CC(C)c1[nH]nc(-c2ccc(F)cc2)c1-c1ccc2ncc(C(N)=O)n2c1 [Example 68, 6-(3-(4-fluorophenyl)-5-isopropyl-1H-pyrazol-4-yl) imidazo [1,2-a]pyridine-3-carboxamide]
0.001 µM	6.1 µM	CC(C)c1[nH]nc(-c2ccc(F)cc2)c1-c1ccc2[nH]ncc2c1 [Example 70, 5-(3-(4-fluorophenyl)-5-isopropyl-1H-pyrazol-4-yl)-1H-indazole]
0.001 µM	6.59 µM	CC(C)c1[nH]nc(-c2ccc(Cl)cc2)c1-c1ccc2ncc(C(N)=O)n2c1 [Example 76, 6-(3-(4-chlorophenyl)-5-isopropyl-1H-pyrazol-4-yl)imidazo[1,2-a]pyridine-3-carboxamide]
0.001 µM	6.67 µM	Cc1cc(-c2n[nH]c(C(C)C)c2-c2ccc3ncc(C#N)n3c2)ccc1F [Example 78, 6-(3-(4-fluoro-3-methylphenyl)-5-isopropyl-1H-pyrazol-4-yl)imidazo[1,2-a]pyridine-3-carbonitrile]
0.001 µM	0.136 µM	Cc1cc(-c2n[nH]c(C(C)C)c2-c2ccc3ncc(C(N)=O)n3c2)ccc1F [Example 79, 6-(3-(4-fluoro-3-methylphenyl)-5-isopropyl-1H-pyrazol-4-yl)imidazo[1,2-a]pyridine-3-carboxamide]
0.001 µM	2.65 µM	O=C(NC1CC1)c1cnc2ccc(-c3c(-c4ccc(F)cc4)n[nH]c3C3CC3)cn12 [Example 92, N-cyclopropyl-6-(5-cyclopropyl-3-(4-fluorophenyl)-1H-pyrazol-4-yl)imidazo[1,2-a]pyridine-3-carboxamide]
0.001 µM	0.806 µM	Cn1nc(-c2ccc(F)cc2)c(-c2ccc3ncc(C(N)=O)n3c2)c1C1CC1 [Example 94, 6-(5-cyclopropyl-3-(4-fluorophenyl)-1-methyl-1H-pyrazol-4-yl)imidazo[1,2-a]pyridine-3-carboxamide]
0.001 µM	6.36 µM	NC(=O)c1cnc2ccc(-c3c(-c4ccc(Cl)cc4)n[nH]c3C3CC3)cn12 [Example 97, 6-(3-(4-chlorophenyl)-5-cyclopropyl-1H-pyrazol-4-yl)imidazo[1,2-a]pyridine-3-carboxamide]
0.001 µM	2.98 µM	Cc1cc(-c2n[nH]c(C3CC3)c2-c2ccc3ncc(C#N)n3c2)ccc1F [Example 99, 6-(5-cyclopropyl-3-(4-fluoro-3-methylphenyl)-1H-pyrazol-4-yl)imidazo[1,2-a]pyridine-3-carbonitrile]
0.001 µM	0.094 µM	Cc1cc(-c2n[nH]c(C3CC3)c2-c2ccc3ncc(C(N)=O)n3c2)ccc1F [Example 100, 6-(5-cyclopropyl-3-(4-fluoro-3-methylphenyl)-1H-pyrazol-4-yl)imidazo[1,2-a]pyridine-3-carboxamide]
0.001 µM	6.66 µM	NC(=O)c1cnc2ccc(-c3c(-c4ccc(F)cc4)n[nH]c3C(F)(F)F)cn12 [Example 106, 6-(3-(4-fluorophenyl)-5-(trifluoromethyl)-1H-pyrazol-4-yl)imidazo[1,2-a]pyridine-3-carboxamide]
0.001 µM	0.761 µM	Cc1cccc(-c2n[nH]c(C(C)C)c2-c2ccc3ncc(C#N)n3c2)n1 [Example 114, 6-(5-isopropyl-3-(6-methylpyridin-2-yl)-1H-pyrazol-4-yl) imidazo [1,2-a]pyridine-3-carbonitrile]
0.001 µM	0.009 µM	Cc1cccc(-c2n[nH]c(C(C)C)c2-c2ccc3ncc(C(N)=O)n3c2)n1 [Example 115, 6-(5-isopropyl-3-(6-methylpyridin-2-yl)-1H-pyrazol-4-yl)imidazo[1,2-a]pyridine-3-carboxamide]
